The source of these data is patent US20230331655A1, “HYDROXYN[…] AND METHODS OF USE THEREOF” (UNIVERSITY OF MARYLAND, BALTIMORE, priority 2020, published 2023).

Like-named read-outs stand apart in the source and are kept apart here.

In one series the test system is mice. The settings on record: i.p.; earlier study; cited from earlier work.
Series [1] is described as follows: pharmacokinetics in plasma and brain after intraperitoneal administration (UPLC-MS/MS). Details: key to Brain Concentration over time, sex-dependent difference / Plasma Concentration over time, sex-dependent difference: F, female; M, male; NS, not statistically different. The series is classed as in vivo, mouse. The note with it: for Kp / half-life / Tmax: CD-1, mouse, ip; for Kp: brain and plasma; for half-life: terminal half-life; for Brain Concentration over time, sex-dependent difference / Plasma Concentration over time, sex-dependent difference / Brain Total exposure (AUC), sex-dependent difference / Plasma Total exposure (AUC), sex-dependent difference: female vs male mice; for Brain Concentration over time, sex-dependent difference / Plasma Concentration over time, sex-dependent difference: ANOVA, Holm-Šídák post-hoc; for Brain Total exposure (AUC), sex-dependent difference / Plasma Total exposure (AUC), sex-dependent difference: t-test; for Tmax: earliest sampling time 10 min. The protocol:
Male and female CD-1 mice (Charles Rivers Laboratories, Raleigh, NC, USA), 8-11 weeks old at the time of testing, were habituated to the University of Maryland (Baltimore, MD, USA) animal facility for at least one week prior to testing. Mice were group housed 4-5 per cage with a constant 12-hour light cycle (lights on/off at 07:00/19:00). Food and water were available ad libitum. All experiments were performed during the light phase. All animal studies were approved by the University of Maryland School of Medicine Institutional Animal Care and Use Committee and conducted in accordance with the National Institutes of Health Guide for the Care and Use of Laboratory Animals.
(2R,6R)-HNK hydrochloride, (2S,6S)-HNK hydrochloride, (2R,6S)-HNK, (2S,6R)-HNK, (2R,5R)-HNK, (2S,5S)-HNK, (2R,5S)-HNK, (2S,5R)-HNK, (2R,4R)-HNK, (2S,4S)-HNK, (2R,4S)-HNK, and (2S,4R)-HNK hydrochloride were synthesized at the National Center for Advancing Translation Sciences (National Institutes of Health, Rockville, MD, USA) using methods previously described in Morris et al., Org Lett 17:4572-4575 (2017), which is incorporated by reference herein in its entirety. (5R)-methyl-(2R,6R)-HNK was obtained from Organix Inc. (Woburn, MA, USA) or from the National Center for Advancing Translational Sciences (Rockville, MD, USA); synthesis and characterization are described in the Supplemental Information. All compounds were dissolved in 20% (w/v) cyclodextrin (Sigma Aldrich, USA) in saline and administered intraperitoneally (i.p.) in a volume of 7.5 ml/kg.
At 10 min (0.167 h), 30 min (0.5 h), 1 h, 2 h, and 4 h post-treatment, mice were deeply anesthetized (3.5% isoflurane for approximately 2 min). Trunk blood was collected into 1.5-ml polypropylene tubes containing 30 μl of disodium EDTA (0.5 M, pH 8.0) and kept on ice until plasma collection (<30 min). Brains were then removed, flash-frozen in isopentane, and stored at −80° C. until analysis. Blood was centrifuged at 8000×g for 6 min at 4° C. to obtain plasma. Plasma was collected into clean microcentrifuge tubes and stored at −80° C. until analysis.
Ultra-performance liquid chromatography-tandem mass spectrometry (UPLC-MS/MS) methods were developed and optimized to determine the concentration of each HNK in mouse plasma and brain samples following systemic administration. Mass spectrometric analysis was performed on a Waters Xevo TQ-S triple quadrupole instrument using electrospray ionization in positive mode with the selected reaction monitoring. The separation of HNKs from endogenous components was performed on a Waters Acquity UPLC with 0.5 ml/min flow rate and gradient elution. The mobile phase A and B were 0.1% formic acid in water and 0.1% formic acid in acetonitrile, respectively. Plasma and brain concentrations of (2R,6R)-, (2S,6S)-, (2R,4S)-, and (2S,4R)-HNK were determined by hydrophilic interaction liquid chromatography-tandem mass spectrometry (HILIC UPLC-MS/MS) using a BEH amide column (1.7μ, 2.1×50 mm). Plasma and brain concentrations of (2R,6S)-, (2S,6R)-, (2R,5R)- (2S,5S)-, (2R,5S)-, (2S,5R)-, (2R,4R)-, and (2S,4S)-HNK; and (5R)-methyl-(2R,6R)-HNK were determined by reversed phase UPLC-MS/MS based upon a previously described protocol with several modifications using a BEH C18 column ([…], 2.1×50 mm). See Moaddel et al., Talanta 82:1892-1904 (2010), and Zanos et al., Nature 533:481-486 ([…]), both of which are incorporated by reference herein in their entireties.
The gradient for HILIC UPLC method was: 0-0.2 min 98% B; 0.2-1.4 min 98% to 35% B; 1.4-1.8 min 35% to 10% B, 1.9-2.4 min 98% B. The gradient for BEH Cis UPLC method was: 0-0.2 min 1% B; 0.2-1.4 min 1% to 35% B; 1.4-1.8 min 35% to 98% B, 1.8-2.2 min 98% B, 2.3 min 1% B. The analytical run time of the UPLC methods was 2.5 min. The calibration standards and quality control samples were prepared in blank mouse plasma and brain homogenate. Calibration standards ranged from 5.0-5000 ng/ml. […]

The target in another series is NMDARs. The settings on record: read-out: Ki (binding / inhibition of NMDARs); cited from earlier work.
For series [2] the following is noted: i.p.; earlier study; cited from earlier work.
Where [3] appears, read: female mice, i.p. 5 mg/kg, read-out: B:P ratio (brain to plasma AUC ratio).
The mark [4] stands for this setting: male mice, i.p. 5 mg/kg, read-out: B:P ratio (brain to plasma AUC ratio).
Where [5] appears, read: brain, female mice, i.p. 5 mg/kg, read-out: t1/2 Brain (converted).
Setting [6] is: brain, male mice, i.p. 5 mg/kg, read-out: t1/2 Brain (converted).
Where [7] appears, read: plasma, female mice, i.p. 5 mg/kg, read-out: t1/2 Plasma (converted).
Setting [8] is: plasma, male mice, i.p. 5 mg/kg, read-out: t1/2 Plasma (converted).
The mark [9] stands for this setting: male mice, equivalent systemic doses.

For orientation: Tmax means the time at which the peak concentration occurs.

As for `N[C@@]1(c2ccccc2Cl)CCC[C@@H](O)C1=O` [(2R,6R)-HNK, (2R,6R)-hydroxynorketamine], in the series with mice, the “lowest dose reducing forced swim test immobility time” value is on record as 5 mg/kg. For the same compound, the Kp in series [1] (setting [3]) and in series [1] (setting [4]) was 1.3 each time. For the same compound, the half-life in series [1] (setting [5]), in series [1] (setting [6]), in series [1] (setting [7]) and in series [1] (setting [8]) was 36 min in each case. The “Brain Concentration over time, sex-dependent difference” value in series [1] (i.p. 5 mg/kg) was “F > M at 10, 30 min”. Besides, the “Plasma Concentration over time, sex-dependent difference” value in series [1] (i.p. 5 mg/kg) is on record as “F > M at 10, 30 min”. Further, the “Brain Total exposure (AUC), sex-dependent difference” value in series [1] (i.p. 5 mg/kg) is recorded as “F > M”. In series [1] (i.p. 5 mg/kg), the “Plasma Total exposure (AUC), sex-dependent difference” value is “F > M”. Besides, at NMDARs, the Ki is over 100 µM. For the same compound, in series [2], the “lowest dose reducing escape failures in the learned helplessness test” value is given as 3 mg/kg.
For the compound `N[C@@]1(c2ccccc2Cl)CCC[C@H](O)C1=O` [(2R,6S)-HNK], the Kp in series [1] (setting [3]) worked out at 0.7. In addition, in series [1] (setting [4]), the Kp was 0.6. Moreover, the half-life in series [1] (setting [5]) is 24 min. For the same compound, the half-life in series [1] (setting [6]) was 42 min. The half-life in series [1] (setting [8]) was 54 min. Further, in series [1] (i.p. 5 mg/kg), the “Brain Concentration over time, sex-dependent difference” value is “NS”; the “Plasma Concentration over time, sex-dependent difference” value is reported as “main effect of sex, M > F”; the “Brain Total exposure (AUC), sex-dependent difference” value was “M > F”; the “Plasma Total exposure (AUC), sex-dependent difference” value is “M > F”. Besides, the “brain concentration at 4 h post-treatment” value in series [1] (females, but not males, i.p. 5 mg/kg, LLOQ 5.0 ng/ml) is listed as “below LLOQs”. In series [1] (male mice), the “peak and total brain levels, lower compared to equivalent dosing with (2R,6R)-HNK” value is given as “two-fold”.
As to `N[C@]1(c2ccccc2Cl)CCC[C@@H](O)C1=O` [(2S,6R)-HNK], the Kp in series [1] (setting [3]) is 1.4. Besides, the Kp in series [1] (setting [4]) is 1.2. Further, the half-life in series [1] (setting [8]) was 42 min. Also, in series [1] (i.p. 5 mg/kg), the “Brain Concentration over time, sex-dependent difference” value is given as “main effect of sex, F > M”; the “Plasma Concentration over time, sex-dependent difference” value is on record as “NS”; the “Brain Total exposure (AUC), sex-dependent difference” value is on record as “F > M”; the “Plasma Total exposure (AUC), sex-dependent difference” value is “F > M”. In series [1] (male mice), the “peak and total brain levels, lower compared to equivalent dosing with (2R,6R)-HNK” value was “three-fold”.
With `N[C@]1(c2ccccc2Cl)CCC[C@H](O)C1=O` [(2S,6S)-HNK, (2S,6S)-hydroxynorketamine], the “lowest dose reducing forced swim test immobility time” value in the series on mice is 25 mg/kg. For the same compound, in series [1] (setting [3]), the Kp came out at 1.2. The half-life in series [1] (setting [5]) was 42 min. For the same compound, in series [1] (setting [6]), the half-life is 42 min. Besides, the half-life in series [1] (setting [8]) is 42 min. Further, in series [1] (i.p. 5 mg/kg), the “Brain Concentration over time, sex-dependent difference” value is “F > M at 10, 30 min”; the “Plasma Concentration over time, sex-dependent difference” value is “main effect of sex, F > M”; the “Brain Total exposure (AUC), sex-dependent difference” value was “F > M”; the “Plasma Total exposure (AUC), sex-dependent difference” value is listed as “F > M”. Also, in series [1] (setting [9]), the “Cmax and AUC, fold greater than those of (2R,6R)-HNK” value is listed as 2-3 fold; the “peak and total brain levels, fold greater than those of (2R,6R)-HNK” value is 2-3 fold. The Ki at NMDARs was 7.34 to 21.2 µM. Moreover, the “lowest dose reducing escape failures in the learned helplessness test” value in series [2] was 75 mg/kg.
`C[C@@H]1CC[C@@](N)(c2ccccc2Cl)C(=O)[C@@H]1O.Cl` [(5R)-methyl-(2R,6R)-HNK, (2R,5R,6R)-2-amino-2-(2-chlorophenyl)-6-hydroxy-5-methylcyclohexan-1-one hydrochloride]: the Kp in series [1] (setting [3]) was determined as 0.4; in series [1] (setting [4]), 0.4; in series [1] (both sexes, male and female mice, i.p. 5 mg/kg, read-out: brain to plasma AUC (exposure) ratio), 0.4. For the same compound, the Tmax in series [1] (brain, both sexes, i.p. 5 mg/kg, read-out: Tmax in the brain (converted)) is 10 min; in series [1] (plasma, both sexes, i.p. 5 mg/kg, read-out: Tmax in the plasma (converted)), 10 min. The half-life in series [1] (setting [5]) was 42 min; in series [1] (setting [6]) it was 48 min; in series [1] (setting [7]), 48 min; in series [1] (setting [8]), 48 min. Also, the “Brain Concentration over time, sex-dependent difference” value in series [1] (i.p. 5 mg/kg) is “NS”. For the same compound, the “Plasma Concentration over time, sex-dependent difference” value in series [1] (i.p. 5 mg/kg) is “main effect of sex, M > F”. Besides, the “Brain Total exposure (AUC), sex-dependent difference” value in series [1] (i.p. 5 mg/kg) is “M > F”. The “Plasma Total exposure (AUC), sex-dependent difference” value in series [1] (i.p. 5 mg/kg) was “M > F”.
